Target: T1, murine SR-BI (Mus musculus, UniProt Q61009)
T1 construct: expressed in transfected cells; host or cells: ldlA-7 (LDL receptor deficient Chinese hamster ovary cells)
T1 sequence (Q61009 1-509): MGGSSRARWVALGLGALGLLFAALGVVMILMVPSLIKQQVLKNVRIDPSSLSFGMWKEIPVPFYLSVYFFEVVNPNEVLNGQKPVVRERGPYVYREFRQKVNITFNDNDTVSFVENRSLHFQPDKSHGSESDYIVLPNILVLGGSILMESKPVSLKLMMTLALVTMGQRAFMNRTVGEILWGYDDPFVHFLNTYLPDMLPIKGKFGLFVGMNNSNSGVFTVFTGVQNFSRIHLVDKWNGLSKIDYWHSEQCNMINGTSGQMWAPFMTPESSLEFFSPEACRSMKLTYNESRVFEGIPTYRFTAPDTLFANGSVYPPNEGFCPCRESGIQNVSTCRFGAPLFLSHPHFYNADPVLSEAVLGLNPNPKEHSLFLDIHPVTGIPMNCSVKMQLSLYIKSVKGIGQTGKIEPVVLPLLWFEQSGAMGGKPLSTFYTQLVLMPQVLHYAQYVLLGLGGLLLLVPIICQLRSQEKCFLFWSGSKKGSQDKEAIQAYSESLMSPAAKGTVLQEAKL
Assay: Uptake of DiI from DiI-HDL by ldlA[mSR-BI] cells (high throughput screen and concentration dependence)
Type: cell-based

[1] = DiI uptake from DiI-HDL, compounds at nominal 10 micromolar, ldlA[mSR-BI] cells

SMILES	ENDOHDL Test 1	ENDOHDL Test 2	ENDOHDL Test 1 [1]	ENDOHDL Test 2 [1]
O=C(Nc1cccc(NC(=O)c2ccccc2Cl)c1)c1cccc([N+](=O)[O-])c1 [MIT 9952-213]	0.66	0.57	–	–
C/C(CCS(=O)(=O)c1ccc(C)cc1)=N\NC(N)=S [MIT 9952-225]	0.56	0.59	–	–
O=C(Nc1nc(-c2ccccc2)cs1)Nc1ccc(Cl)cc1Cl [MIT 9952-232]	0.61	0.56	–	–
C/C(CS(=O)(=O)c1ccc(C)cc1)=N/NC(N)=S [MIT 9952-181]	0.6	0.54	–	–
O=C(Nc1cccc(C(F)(F)F)c1)c1cccc(C(=O)Nc2cccc(C(F)(F)F)c2)n1 [MIT 9952-189]	0.56	0.58	–	–
O=C(Cl)c1ccc2c(c1)C(=O)N(c1ccc(-c3ccnc(-c4ccc(N5C(=O)c6ccc(C(=O)Cl)cc6C5=O)cc4)n3)cc1)C2=O [MIT 9952-42]	1.27	1.21	–	–
O=C(O)c1ccc2c(c1)C(=O)N(c1ccc(C(=O)OCC(=O)c3ccccc3)cc1)C2=O [MIT 9952-190]	1.47	1.35	–	–
CCS(=O)(=O)C(=C(Nc1ccc(OC)cc1)Nc1ccc(OC)cc1)S(=O)(=O)CC [MIT 9952-57]	1.13	1.25	–	–
CCn1c(COC)c(-c2ccccc2)c2cc([N+](=O)[O-])ccc21 [MIT 9952-143]	0.66	0.65	–	–
Cc1ccc2c(c1Br)/C(=N/NC(=O)Nc1ccccc1)C(=O)N2 [MIT 9952-130]	0.62	0.65	–	–
CCOC(=O)c1c(C)n(-c2ccc(C)cc2)c2ccc(O)cc12 [MIT 9952-73]	0.61	0.59	–	–
O=C(NC(NC(=S)Nc1cccc2ccccc12)C(Cl)(Cl)Cl)c1cccc([N+](=O)[O-])c1 (centres unmarked) [MIT 9952-325]	–	–	0.56	0.49
Cc1ccc(NC(=O)c2ccc([N+](=O)[O-])c(C)c2)cc1Cl [MIT 9952-224]	0.6	0.5	–	–
O=C1CC(N2CCOCC2)C(=O)N1c1ccc(Br)cc1 (centres unmarked) [MIT 9952-17]	1.32	1.17	–	–
CC(C)c1ccc(NC(=O)/C=C/c2cccc([N+](=O)[O-])c2)cc1 [MIT 9952-274]	0.65	0.6	–	–
C=CCc1c(C)nc(-c2ccccc2)nc1Nc1ccc([N+](=O)[O-])cc1 [MIT 9952-227]	0.58	0.53	–	–
Cc1cc(C(=O)N/N=C\c2c(O)ccc3ccccc23)[nH]n1 [MIT 9952-150]	0.34	0.52	–	–
O=C(Oc1ccc2c(=O)c(Oc3ccccc3)coc2c1)C1CCCN1C(=O)OCc1ccccc1 (centres unmarked) [MIT 9952-145]	1.28	1.34	–	–
Cc1ccsc1/C=N/NC(=O)c1cccc([N+](=O)[O-])c1 [MIT 9952-323]	–	–	0.46	0.63
O=C(Nc1ccc(Cl)cc1)c1ccc(N2C(=O)c3ccc(C(=O)Nc4ccc(Cl)cc4)cc3C2=O)cc1 [MIT 9952-161]	1.37	1.5	–	–
Cc1cccc(C(=O)Nc2cccc(-c3nc4c(C)cccc4o3)c2)c1 [MIT 9952-236]	0.57	0.38	–	–
C=CC/C=C/c1c(NC(=O)c2ccccc2)sc2c1CCCC2 [MIT 9952-294]	–	–	0.61	0.56

— US20040171073A1, “Compounds for modulation of cholesterol transport” (Massachusetts Institute of Technology, priority 2002, published 2004)
